Results: US20150353626A1, “APOLIPOPROTEIN A-I DERIVED PEPTIDES FOR TREATMENT OF HYPERGLYCAEMIA” (priority 2013, published 2015)

How the values were obtained:
Assay type in all cases: cell-based
rat adipocytes = assay: Glucose uptake in isolated rat adipocytes; conditions: insulin 100 nmol/l, 190-243 fragment 30 μg/ml, FIG. 9b
Experimental: Adipose cells were prepared as previously described (Rodbell (1964) J Biol Chem. 239: 375-80). In brief, epidydymal fat pads were minced and digested in Krebs-Ringer-bicarbonate-HEPES (KRBH) buffer, pH 7.4, containing 10 mM sodium bicarbonate, 30 mM HEPES, 200 nM adenosine, 1% bovine serum albumin (BSA) with 1 mg/ml collagenase. After digestion, the cells were filtered through nylon mesh (250 μm) and washed with KRBH-buffer.
Isolated rat adipocytes were treated for 60 min with insulin (100 nmol/l), 190-243 polypeptide fragment (having the amino acid sequence consisting of SEQ ID NO:1) (30 μg/ml) or 1-243 human apoA-I protein (150 μg/ml) followed by glucose uptake measurement by addition of UC14 tracer glucose (Perkin Elmer) (30 min). The uptake was terminated by centrifugation through dinonyl phtalate oil. Incubation with Cytochalasin B was used to subtract unspecific background binding. Amount of glucose was detected as count radioactivity measured by Beta CounterThe amount of glucose transported was measured using an isotope labeled UC14-assay.

GLUT4 = GLUT4 translocation to plasma membrane in primary FDB muscle fibers (HA immunofluorescence, ex vivo); conditions: FDB fibers of HA-GLUT4-GFP mouse, 60 minutes, insulin 100 nmol/l, FIGS. 1d/7d, 4c/9a
Experimental: To support the glucose uptake observations described in Example 2, the ability of rHDL and the 190-243 polypeptide fragment (SEQ ID NO:1) to increase the amount of GLUT4 in the plasma membrane was assessed by immunofluorescence microscopy of intact primary skeletal flexor digitorum brevis (FDB) muscle fibers, isolated from a transgenic mouse model with muscle-specific HA-GLUT4-GFP expression (Lizunov et al. (2012) Am J Physiol Endocrinol Metab 302: E950-960). The HA epitope present on the first exofacial loop of the HA-GLUT4-GFP construct allows detection of GLUT4 inserted into the plasma membrane. Intact FDB fibers were incubated ex vivo with rHDL followed by fixation and HA antibody labeling of non-permeabilized cells as described below.
Two to five transgenic mice (C57/Bl6; 10-14 weeks) with muscle specific HA-GLUT4-GFP expression (gift from S. Cushman) (Lizunov et al. (2012) Am J Physiol Endocrinol Metab 302: E950-960), were used for each condition. The animals were euthanized and flexor digitorum brevis (FDB) muscles dissected out and incubated with oxygenated Krebs-Henseleit carbonate Hepes (KRBH) buffer (6 mmol/l KCl, 1 mmol/l Na2HPO4, 0.2 mmol/l NaHPO4, 1.4 mmol/l MgSO4, 1 mmol/l CaCl2, 128 mmol/l NaCl, 10 mmol/l HEPES pH 7.4) with 0.5% (w/v) bovine serum albumin. […]

L6 myotubes = assay: Glucose uptake in L6 myotubes (2-[3H]-deoxy-D-glucose)
Experimental: L6 myoblasts (ATCC #CRL-1458) were grown in α-MEM (Invitrogen) supplemented with 10% FBS (Sigma) and 1% antibiotic/antimycotic (Penicillin, streptomycin, amphotericin B; Invitrogen). Differentiation to myotubes was achieved by switching from growth media to 2% FBS a-MEM for 6-7 or 6-12 days. Cells were maintained at 37° C. and 5% CO2.
Prior to stimulation (or treatment) cells were starved for 2 hours in serum-free a-MEM and all subsequent treatments, which were performed in triplicate and included cytochalasin B (Sigma) as a measure of cell associated non-specific radioactivity, were performed in uptake buffer (140 mmol/l NaCl, 20 mmol/l HEPES, 5 mmol/l KCl, 2.5 mmol/l MgSO4, 1 mmol/l CaCl2, pH 7.4). After stimulation, treatments were replaced with 10 μmol/l 2-deoxy-D-glucose (Sigma), 10 μmol/l 2-[3H]-deoxy-D-glucose (Perkin Elmer) in uptake buffer for 15 mins at room temperature. Cells were then washed twice with ice cold PBS and lysed with 1 mol/l NaOH on ice. Lysates were collected and radioactivity quantified by scintillation counting.
In order to investigate the effect of discodial HDL (rHDL) on GLUT4 translocation and glucose uptake, we produced recombinant human apoA-I and reconstituted HDL needed for cell incubations. L6 myotubes were incubated with 50 μg/ml (1.6 μmol/l) apoA-I for 1 hour followed by a glucose uptake assay as described above. […] Next, L6 myotubes were treated by incubation with 50 μg/ml discodial rHDL (expressed as total concentration of apoA-I in rHDL, given 2 apoA-I molecules per particle) for 1 hour. […] This experiment was thereafter repeated in more controlled manner including cell number and quality (cells were similarly treated during differentiation from myoblasts to multinuclear myotubes, with respect to the time between splitting cells, cell density, passage of cells used.) (FIG. 7c).
The relative effect of specific regions of apoA-I to increase glucose uptake was investigated using truncated protein fragments corresponding to residues 1-189 (N-terminal/central domain), 44-189 (central domain), 44-243 (central/C-terminal domain) and 190-243 (C-terminal domain) of full-length apoA-I (FIG. 4a). The treatments with incubation of truncated protein fragments were performed as described above for treatment of L6 myotubes with full-length apoA-I and followed by a glucose uptake assay as described above.
To test for the contribution of the constituent phospholipid to rHDL-induced glucose uptake in L6 myotubes, rHDL made with DMPC was also produced and compared to 100 nm DMPC vesicles containing no apoA-I protein. Stable 100 nm diameter vesicles can be synthesized with DMPC in the absence of apoA-I and was therefore used as a phospholipid control. The effect on the glucose uptake was tested as described above. […] To also test for the contribution of the constituent POPC phospholipid to rHDL-induced glucose uptake, rHDL made with POPC was compared with 100 nm POPC vesicles containing no apoA-I protein.

Substance | glucose uptake in adipocytes (in words) (rat adipocytes) | GLUT4 in the sarcolemma plasma membrane (HA signal, in words) (GLUT4) | glucose uptake, fold change versus control (L6 myotubes; apoA-I fragment, 60 minutes, FIGS. 4b and 8b) | glucose uptake over basal/Control, repeated experiment (L6 myotubes; 2 μmol/l (60 μg/ml) POPC rHDL or 100 nmol/l insulin, 60 minutes, FIG. 7c) | glucose uptake over basal (L6 myotubes; 50 μg/ml rHDL (as apoA-I) or 100 nmol/l insulin, 1 hour, FIG. 1c, rHDL p=0.095) | increased glucose uptake (L6 myotubes; 2 h serum starved, 50 μg/ml (1.6 μmol/l) apoA-I or 100 nmol/l insulin, 1 hour, FIG. 1b)
190-243 polypeptide fragment: polypeptide fragment consisting of amino acids 190-243 of the full-length human apoA-I protein, C-terminal domain, 54-mer, recombinant (AEYHAKATEHLSTLSEKAKPALEDLRQGLLPVLESFKVSFLSALEEYTKKLNTQ; listed as Homo Sapiens) | significantly induced | greater membrane levels of GLUT4 protein | 1.77±0.23 fold | – | – | –
insulin | significantly induced | induced translocation of GLUT4 into the sarcolemma plasma membrane | – | 2.4±1.0 fold | 2.4±1.0 fold | 2 fold
